Laboratory results: paper PMC6587462 (Journal of Clinical Pharmacology, 2018)
“And” between values parts separate entries of the source, which are not always exact repeats. Identical values can stand only once. “Also recorded” adds a separate entry of the source. Like-named read-outs stand apart in the source and are kept apart here.

Assays:
[1] = Study 4 pilot bioequivalence study, PK after single oral NEPA; type: in vivo; settings: human, plasma
[2] = Study 5 bioequivalence study, PK after single oral NEPA; type: in vivo, human
[3] = Study 9 replicate crossover bioequivalence study; type: in vivo, human
[4] = Study 10 comparative bioavailability study; type: in vivo, human
[5] = Study 11 population PK/pharmacodynamic study in cancer patients; type: in vivo, human; settings: population PK modeling in patients
[6] = Study 12 PK/safety and DDI study in cancer patients; type: in vivo; settings: human, plasma, oral
[7] = Oral NEPA PK in cancer patients, summary across studies; type: in vivo; settings: human, plasma
[8] = Study 2 ADME study of [14C]-netupitant; type: in vivo, human; settings: estimated at day 29 after administration
[9] = Apical-to-basolateral permeability in Caco-2 monolayer; type: in vitro ADME; settings: human
[10] = Biopharmaceutics Classification System class and solubility in water; type: physicochemical
[11] = Octanol-water partition coefficient; type: physicochemical
[12] = molecular target: T1, P‐glycoprotein (P‐gp) efflux transporter (Homo sapiens, UniProt P08183); assay: In vitro interaction with P-gp; type: in vitro ADME
T1 sequence (P08183 whole entry): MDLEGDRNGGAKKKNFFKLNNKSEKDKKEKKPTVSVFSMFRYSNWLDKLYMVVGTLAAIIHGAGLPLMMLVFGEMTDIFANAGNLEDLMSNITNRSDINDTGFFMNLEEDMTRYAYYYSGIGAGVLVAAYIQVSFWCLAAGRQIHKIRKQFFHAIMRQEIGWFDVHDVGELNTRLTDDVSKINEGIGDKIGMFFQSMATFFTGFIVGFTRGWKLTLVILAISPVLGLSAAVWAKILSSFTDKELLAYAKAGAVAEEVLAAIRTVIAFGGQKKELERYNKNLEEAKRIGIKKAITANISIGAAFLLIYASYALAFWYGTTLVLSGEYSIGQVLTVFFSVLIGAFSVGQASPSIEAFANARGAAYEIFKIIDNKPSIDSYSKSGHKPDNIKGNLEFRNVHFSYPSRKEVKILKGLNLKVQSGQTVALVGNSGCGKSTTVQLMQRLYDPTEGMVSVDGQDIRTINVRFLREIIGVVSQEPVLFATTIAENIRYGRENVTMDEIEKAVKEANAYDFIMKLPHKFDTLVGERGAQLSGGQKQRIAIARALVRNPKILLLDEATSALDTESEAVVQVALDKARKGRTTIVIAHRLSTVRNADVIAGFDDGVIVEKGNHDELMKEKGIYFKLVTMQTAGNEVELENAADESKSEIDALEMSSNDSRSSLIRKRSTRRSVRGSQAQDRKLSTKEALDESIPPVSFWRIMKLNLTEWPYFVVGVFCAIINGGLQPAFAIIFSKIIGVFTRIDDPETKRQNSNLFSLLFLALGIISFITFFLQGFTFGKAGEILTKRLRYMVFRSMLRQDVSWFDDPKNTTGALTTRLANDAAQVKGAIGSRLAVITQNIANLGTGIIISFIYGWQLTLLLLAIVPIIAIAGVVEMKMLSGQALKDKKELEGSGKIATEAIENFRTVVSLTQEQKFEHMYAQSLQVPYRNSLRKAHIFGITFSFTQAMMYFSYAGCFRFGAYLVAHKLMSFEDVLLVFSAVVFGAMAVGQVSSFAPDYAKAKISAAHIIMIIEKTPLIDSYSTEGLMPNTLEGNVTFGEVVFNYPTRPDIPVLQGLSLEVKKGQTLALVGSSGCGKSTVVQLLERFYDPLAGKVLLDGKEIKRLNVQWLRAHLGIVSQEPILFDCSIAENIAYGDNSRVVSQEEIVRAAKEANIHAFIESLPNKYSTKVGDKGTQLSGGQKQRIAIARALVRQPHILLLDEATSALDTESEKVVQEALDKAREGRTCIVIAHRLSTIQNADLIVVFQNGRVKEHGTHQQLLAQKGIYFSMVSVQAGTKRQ

[13] = Binding to plasma proteins; type: in vitro ADME; settings: human, plasma
[14] = system: plasma proteins; assay: Binding to plasma proteins; type: in vitro ADME
[15] = Absolute / oral bioavailability; type: in vivo; settings: human, plasma, oral
[16] = molecular target: CYP2D6 (Homo sapiens, UniProt P10635); assay: In vitro CYP2D6 inhibition; type: in vitro ADME
Sequence of CYP2D6 (P10635 whole entry): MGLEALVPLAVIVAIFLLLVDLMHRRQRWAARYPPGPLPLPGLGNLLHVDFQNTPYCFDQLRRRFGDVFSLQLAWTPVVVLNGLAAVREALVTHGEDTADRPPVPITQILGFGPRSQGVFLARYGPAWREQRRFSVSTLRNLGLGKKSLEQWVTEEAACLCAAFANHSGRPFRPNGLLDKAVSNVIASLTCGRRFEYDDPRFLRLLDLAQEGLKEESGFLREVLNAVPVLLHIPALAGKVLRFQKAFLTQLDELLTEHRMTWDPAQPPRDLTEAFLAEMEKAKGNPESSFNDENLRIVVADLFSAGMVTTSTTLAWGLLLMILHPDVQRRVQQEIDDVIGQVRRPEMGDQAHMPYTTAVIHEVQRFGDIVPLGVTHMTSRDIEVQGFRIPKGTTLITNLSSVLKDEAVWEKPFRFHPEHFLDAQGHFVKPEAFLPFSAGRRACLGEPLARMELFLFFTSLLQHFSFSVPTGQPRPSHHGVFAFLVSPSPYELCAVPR

[17] = set-up: species or system human; settings: estimated from t1/2
[18] = cited from earlier work
[19] = cited from earlier work; for CL/F / Cmax / Tmax / Vz/F / t1/2: Study 8, healthy volunteers (22), NEPA FDC, mean (CV%)
[20] = Study 11 population PK, patients (117), NEPA FDC, cited from earlier work
[21] = absorption, binding, metabolic, or excretory level; cited from earlier work
[22] = cited from earlier work; remark: listed apart in the source
[23] = netupitant; cited from earlier work
[24] = molecular target: T1, P‐glycoprotein (P‐gp) efflux transporter; settings: in vitro, cited from earlier work
[25] = molecular target: CYP3A4 (Homo sapiens, UniProt P08684); settings: in vitro; cited from earlier work
Sequence of CYP3A4 (P08684 whole entry): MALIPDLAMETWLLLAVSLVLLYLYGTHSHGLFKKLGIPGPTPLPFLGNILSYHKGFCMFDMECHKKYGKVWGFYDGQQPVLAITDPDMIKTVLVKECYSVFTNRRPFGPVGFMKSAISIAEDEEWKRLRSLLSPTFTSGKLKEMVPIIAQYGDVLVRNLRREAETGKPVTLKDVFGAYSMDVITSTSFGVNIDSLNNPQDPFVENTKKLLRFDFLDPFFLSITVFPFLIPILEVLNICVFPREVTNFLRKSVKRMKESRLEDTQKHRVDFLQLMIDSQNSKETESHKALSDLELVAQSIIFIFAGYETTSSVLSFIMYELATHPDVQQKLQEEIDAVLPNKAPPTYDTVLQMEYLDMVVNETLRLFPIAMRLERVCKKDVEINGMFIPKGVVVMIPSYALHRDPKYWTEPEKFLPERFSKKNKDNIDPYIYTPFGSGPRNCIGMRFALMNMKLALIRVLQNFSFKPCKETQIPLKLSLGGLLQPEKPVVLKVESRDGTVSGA

[26] = system: NK1 receptor; settings: PET; at 6 hours after single 300-mg oral netupitant; cited from earlier work
[27] = system: NG108‐15 cells; settings: netupitant and palonosetron combined; cited from earlier work
[28] = molecular target: NK1 receptor (Homo sapiens, UniProt P25103); settings: NG108-15 cells; netupitant and palonosetron combined; cited from earlier work
Sequence of NK1 receptor (Homo sapiens, UniProt P25103) (P25103 whole entry, species assumed): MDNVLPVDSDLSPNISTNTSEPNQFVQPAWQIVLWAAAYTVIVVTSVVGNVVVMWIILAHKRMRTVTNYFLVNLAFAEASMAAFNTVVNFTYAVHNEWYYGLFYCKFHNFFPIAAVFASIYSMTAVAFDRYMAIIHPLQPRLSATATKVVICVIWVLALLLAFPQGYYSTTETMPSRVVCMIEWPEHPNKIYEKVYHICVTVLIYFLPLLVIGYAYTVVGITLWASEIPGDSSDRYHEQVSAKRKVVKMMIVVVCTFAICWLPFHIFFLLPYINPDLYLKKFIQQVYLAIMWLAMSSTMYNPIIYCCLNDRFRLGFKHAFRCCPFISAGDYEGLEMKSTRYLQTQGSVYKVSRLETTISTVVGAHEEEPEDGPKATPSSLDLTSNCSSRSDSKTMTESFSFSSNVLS

[29] = clinical; settings: human, in vivo, po
[30] = single-dose NEPA with 400-mg ketoconazole for 12 days vs alone
[31] = single-dose NEPA with daily 600-mg rifampicin for 17 days

With `Cc1ccccc1-c1cc(N2CCN(C)CC2)ncc1N(C)C(=O)C(C)(C)c1cc(C(F)(F)F)cc(C(F)(F)F)c1` [netupitant] the Tmax [1] was 5.38 h, the Vd/F [1] was 2780 L and the half-life [1] was 89.2 h. The CL/F ([2]; Study 5, healthy volunteers (47), single oral NEPA FDC, mean (CV%)) was 26.3 (47.4) L/h, the Cmax ([2]; human, plasma, po) was 434 ng/mL and the Tmax ([2]; human, plasma, po) was 5.07 h. For the same molecule, the Vd/F ([2]; human, plasma, po) was 3310 L, the half-life ([2]; human, plasma, po) was 95.6 h and the CL/F ([3]; Study 9, healthy volunteers (82), NEPA FDC commercial product, mean (CV%)) was 26.2 (51.2) L/h. For the same molecule, the Cmax ([3]; human, plasma, oral) was 454 ng/mL, the Tmax ([3]; human, plasma, oral) was 5.01 h and the Vd/F ([3]; human, plasma, oral) was 2740 L. The half-life ([3]; human, plasma, oral) was 76.6 h, the CL/F ([4]; Study 10, healthy volunteers (24), NEPA FDC standard dissolution, mean (CV%)) was 25.7 (40.9) L/h and the Cmax ([4]; human, plasma, oral) was 374 ng/mL. For the same molecule, the Tmax ([4]; human, plasma, oral) was 5.15 h, the Vd/F ([4]; human, plasma, oral) was 3160 L and the half-life ([4]; human, plasma, oral) was 89.9 h. The absorption lag time [5] was 0.77 h, the absorption rate constant [5] was 0.956 h⁻¹ and the Vd/F [6] was 1860 to 2260 L. For the same molecule, the Cmax [7] was 477 to 567 ng/mL, the Tmax [7] was 4.02 to 4.56 h and the Vd/F [7] was 1660 to 2260 L. For the same molecule, the “fraction of netupitant eliminated” value [8] was “approximately 90%”, the Papp [9] was greater than 20 ×10⁻⁶ cm/s and the “Biopharmaceutics Classification System class” value [10] was 2. The logP [11] was 5.1, the Ki [12] was 3 µM and the “fold by which unbound peak plasma concentration is lower than P-gp Ki” value ([12]; human, not told, oral) was “approximately 5 fold”. For the same molecule, the fraction unbound [13] was less than 0.01, the “binding to plasma proteins” value [14] was greater than 99% and the bioavailability [15] was 63 to 87%. The “inhibition or induction of CYP2D6” value [16] was “not an inhibitor or inducer”, the “fraction from previous NEPA administration eliminated at next dose” value ([17]; chemotherapy every 2 weeks) was “approximately 95%” and the “fraction from previous NEPA administration eliminated at next dose” value ([17]; chemotherapy every 3 weeks) was “approximately 99%”. The CL/F (Healthy volunteers, Min-Max of study means, single oral NEPA) was 16.3 to 26.3 L/h, the “time after dosing until which plasma concentrations were quantifiable” value (after NEPA, M2 below LLOQ thereafter, others up to last observation time) was 10 days and the “plasma concentration as fraction of mean Cmax” value (at 3 hours after oral NEPA) was “approximately 80%”. For the same molecule, the “peak plasma concentration of unbound netupitant” value (human, in vivo) was 0.65 µM, the “fold increase of AUCinf” value [18, 30] was 2.4 fold and the “fold increase of Cmax” value [18, 30] was 1.2 fold. For the same molecule, the “fold decrease of AUCinf” value [18, 31] was 4.9 fold, the “fold decrease of Cmax” value [18, 31] was 2.2 fold and the CL/F ([19]; fasted) was 20.5 (52.7) L/h. For the same molecule, the Cmax ([19]; fasted) was 596.4 (39.1) ng/mL, the Tmax ([19]; fasted) was 5.14 (17.3) h and the Vz/F ([19]; fasted) was 2851 (57.3) L. The t1/2 ([19]; fasted) was 101.2 (52.2) h, the CL/F ([19]; fed) was 16.3 (23.1) L/h and the Cmax ([19]; fed) was 649.8 (21.8) ng/mL. The Tmax ([19]; fed) was 5.66 (17.1) h, the Vz/F ([19]; fed) was 1984 (40.1) L and the t1/2 ([19]; fed) was 86.3 (46.2) h. For the same molecule, the “AUCinf and Cmax under fed (high-fat breakfast) vs fasting conditions” value ([19]; open, randomized, 2-way crossover study in healthy volunteers) was “similar”, the Cmax ([20]; mean (CV%)) was 567.3 (38.2) ng/mL and the Tmax ([20]; mean (CV%)) was 4.02 (59.1) h. For the same molecule, the t1/2 ([20]; mean (CV%)) was 92.8 (32.8) h, the CL/F ([20]; value (%RSE)) was 20.5 (%RSE 16.3) L/h and the “PK interaction between netupitant and palonosetron” value [21] was “no relevant PK interactions”. For the same molecule, the “mass balance recovery of total radioactivity in urine” value ([22]; [14C]-netupitant and its metabolites M1, M2, and M3) was 4.75%, the “administered dose excreted through the feces (hepatic/biliary route)” value ([22]; netupitant and its metabolites) was 87% and 86.5% and the solubility in water [23] was “very slightly soluble”. For the same molecule, the “substrate of P-gp (MDR1/P-gp) efflux transporter” value [24] was “not a P‐gp substrate; also recorded: not substrates”, the “inhibitor of P-gp efflux transporter” value ([24]; parent drugs) was “P‐gp inhibitor” and the CYP3A4 inhibition [25] was “moderate inhibitor”. For the same molecule, the “NK1 receptor occupancy in the striatum” value [26] was 92.5%, the “combined effect on inhibition of substance P-mediated response” value [27] was “synergistic effects” and the “combined effect on triggering NK1 receptor internalization” value [28] was “additive effects”. The Cmax [29] was 374 to 650 ng/mL, the Tmax [29] was 4.36 to 5.66 h and the Vd/F [29] was 1980 to 3310 L. For the same molecule, the half-life [29] was 75.3 to 101 h.
